Measured values: ChEMBL document CHEMBL1201862, “PubChem BioAssay data set” (2004)
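Exposure lasted 48 hours, with cells grown in 96-well plates and compounds tested at five concentrations. At the GI50, growth is halved.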 Active and inactive are the calls of the source. No stated cut-off is given here; in the data, active = GI50 up to about 1.1 µM and inactive = higher.

Assays:
Experiment in all cases: DTP human tumour cell line panel, 48 h
786-0 = tested on: 786-0
A498 = tested on: A498
A549 = tested on: A549
ACHN = tested on: ACHN
BT-549 = tested on: BT-549
CAKI-1 = tested on: CAKI-1
CCRF-CEM = tested on: CCRF-CEM
COLO 205 = tested on: COLO 205
DU-145 = tested on: DU-145
EKVX = tested on: EKVX
HCT-116 = tested on: HCT-116
HCT-15 = tested on: HCT-15
HOP-62 = tested on: HOP-62
HOP-92 = tested on: HOP-92
HT-29 = tested on: HT-29
Hs-578T = tested on: Hs-578T
IGROV-1 = tested on: IGROV-1
KM12 = tested on: KM12
LOX IMVI = tested on: LOX IMVI
M14 = tested on: M14
MCF7 = tested on: MCF7
MDA-MB-231 = tested on: MDA-MB-231
MDA-MB-435 = tested on: MDA-MB-435
MOLT-4 = tested on: MOLT-4
Malme-3M = tested on: Malme-3M
NCI-H226 = tested on: NCI-H226
NCI-H23 = tested on: NCI-H23
NCI-H460 = tested on: NCI-H460
NCI-H522 = tested on: NCI-H522
NCI/ADR-RES = tested on: NCI/ADR-RES
OVCAR-3 = tested on: OVCAR-3
OVCAR-4 = tested on: OVCAR-4
OVCAR-5 = tested on: OVCAR-5
OVCAR-8 = tested on: OVCAR-8
PC-3 = tested on: PC-3
RPMI-8226 = tested on: RPMI-8226
RXF 393 = tested on: RXF 393
SF-268 = tested on: SF-268
SF-295 = tested on: SF-295
SF-539 = tested on: SF-539
SK-MEL-28 = tested on: SK-MEL-28
SK-MEL-2 = tested on: SK-MEL-2
SK-MEL-5 = tested on: SK-MEL-5
SK-OV-3 = tested on: SK-OV-3
SN12C = tested on: SN12C
SNB-19 = tested on: SNB-19
SNB-75 = tested on: SNB-75
SW-620 = tested on: SW-620
T47D = tested on: T47D
TK-10 = tested on: TK-10
U-251 = tested on: U-251
UACC-257 = tested on: UACC-257
UACC-62 = tested on: UACC-62
UO-31 = tested on: UO-31
HCC 2998 = tested on: HCC 2998
HL-60 = tested on: HL-60
K562 = tested on: K562
MDA-N = tested on: MDA-N
SR = tested on: SR

For O=C(O)c1cccc(/C=C/c2ccccc2)c1, the GI50 (786-0) was > 100 µM (inactive), the GI50 (A498) was > 100 µM (inactive) and the GI50 (A549) was > 100 µM (inactive). The GI50 (ACHN) was > 100 µM (inactive), the GI50 (BT-549) was > 100 µM (inactive) and the GI50 (CAKI-1) was > 100 µM (inactive). The GI50 (CCRF-CEM) was > 100 µM (inactive), the GI50 (COLO 205) was > 100 µM (inactive) and the GI50 (DU-145) was 3.08 µM (inactive). For the same compound, the GI50 (EKVX) was > 100 µM (inactive), the GI50 (HCT-116) was > 100 µM (inactive) and the GI50 (HCT-15) was > 100 µM. For the same compound, the GI50 (HOP-62) was > 100 µM (inactive), the GI50 (HOP-92) was > 100 µM (inactive) and the GI50 (HT-29) was > 100 µM (inactive). The GI50 (Hs-578T) was > 100 µM (inactive), the GI50 (IGROV-1) was > 100 µM (inactive) and the GI50 (KM12) was > 100 µM (inactive). For the same compound, the GI50 (LOX IMVI) was > 100 µM (inactive), the GI50 (M14) was > 100 µM (inactive) and the GI50 (MCF7) was > 100 µM (inactive). The GI50 (MDA-MB-231) was > 100 µM (inactive), the GI50 (MDA-MB-435) was > 100 µM (inactive) and the GI50 (MOLT-4) was > 100 µM (inactive). The GI50 (Malme-3M) was 72.6 µM (inactive), the GI50 (NCI-H226) was > 100 µM (inactive) and the GI50 (NCI-H23) was > 100 µM (inactive). The GI50 (NCI-H460) was > 100 µM (inactive), the GI50 (NCI-H522) was > 100 µM (inactive) and the GI50 (NCI/ADR-RES) was > 100 µM (inactive). The GI50 (OVCAR-3) was > 100 µM (inactive), the GI50 (OVCAR-4) was > 100 µM (inactive) and the GI50 (OVCAR-5) was > 100 µM (inactive). The GI50 (OVCAR-8) was > 100 µM (inactive), the GI50 (PC-3) was > 100 µM (inactive) and the GI50 (RPMI-8226) was > 100 µM (inactive). For the same compound, the GI50 (RXF 393) was > 100 µM (inactive), the GI50 (SF-268) was > 100 µM (inactive) and the GI50 (SF-295) was > 100 µM (inactive). For the same compound, the GI50 (SF-539) was > 100 µM (inactive), the GI50 (SK-MEL-28) was > 100 µM (inactive) and the GI50 (SK-MEL-2) was > 100 µM (inactive). For the same compound, the GI50 (SK-MEL-5) was > 100 µM (inactive), the GI50 (SK-OV-3) was > 100 µM (inactive) and the GI50 (SN12C) was > 100 µM (inactive). For the same compound, the GI50 (SNB-19) was > 100 µM (inactive), the GI50 (SNB-75) was > 100 µM (inactive) and the GI50 (SW-620) was > 100 µM (inactive). For the same compound, the GI50 (T47D) was > 100 µM (inactive), the GI50 (TK-10) was > 100 µM (inactive) and the GI50 (U-251) was > 100 µM (inactive). For the same compound, the GI50 (UACC-257) was > 100 µM (inactive), the GI50 (UACC-62) was > 100 µM (inactive) and the GI50 (UO-31) was > 100 µM (inactive).

For CC(=O)OCC1OC(n2c(=O)[nH]c(=O)c3sccc32)C(Br)C1OC(C)=O (configuration not stated), the GI50 (786-0) was > 100 µM (inactive), the GI50 (A498) was > 100 µM (inactive) and the GI50 (A549) was > 100 µM (inactive). The GI50 (ACHN) was > 100 µM (inactive), the GI50 (BT-549) was > 100 µM (inactive) and the GI50 (CAKI-1) was > 100 µM (inactive). The GI50 (CCRF-CEM) was > 100 µM (inactive), the GI50 (COLO 205) was > 100 µM (inactive) and the GI50 (DU-145) was > 100 µM (inactive). The GI50 (EKVX) was > 100 µM (inactive), the GI50 (HCC 2998) was > 100 µM (inactive) and the GI50 (HCT-116) was > 100 µM (inactive). The GI50 (HCT-15) was > 100 µM, the GI50 (HL-60) was > 100 µM (inactive) and the GI50 (HOP-62) was > 100 µM (inactive). For the same compound, the GI50 (HOP-92) was > 100 µM (inactive), the GI50 (HT-29) was > 100 µM (inactive) and the GI50 (Hs-578T) was > 100 µM (inactive). The GI50 (IGROV-1) was > 100 µM (inactive), the GI50 (K562) was > 100 µM (inactive) and the GI50 (KM12) was > 100 µM (inactive). For the same compound, the GI50 (LOX IMVI) was > 100 µM (inactive), the GI50 (M14) was > 100 µM (inactive) and the GI50 (MCF7) was > 100 µM (inactive). The GI50 (MDA-MB-231) was > 100 µM (inactive), the GI50 (MDA-MB-435) was > 100 µM (inactive) and the GI50 (MDA-N) was > 100 µM (inactive). For the same compound, the GI50 (MOLT-4) was > 100 µM (inactive), the GI50 (Malme-3M) was > 100 µM (inactive) and the GI50 (NCI-H226) was > 100 µM (inactive). For the same compound, the GI50 (NCI-H23) was > 100 µM (inactive), the GI50 (NCI-H460) was > 100 µM (inactive) and the GI50 (NCI-H522) was > 100 µM (inactive). For the same compound, the GI50 (NCI/ADR-RES) was > 100 µM (inactive), the GI50 (OVCAR-3) was > 100 µM (inactive) and the GI50 (OVCAR-4) was > 100 µM (inactive). The GI50 (OVCAR-5) was > 100 µM (inactive), the GI50 (OVCAR-8) was > 100 µM (inactive) and the GI50 (PC-3) was > 100 µM (inactive). For the same compound, the GI50 (RPMI-8226) was > 100 µM (inactive), the GI50 (RXF 393) was > 100 µM (inactive) and the GI50 (SF-268) was > 100 µM (inactive). The GI50 (SF-295) was > 100 µM (inactive), the GI50 (SF-539) was > 100 µM (inactive) and the GI50 (SK-MEL-28) was > 100 µM (inactive). The GI50 (SK-MEL-2) was > 100 µM (inactive), the GI50 (SK-MEL-5) was > 100 µM (inactive) and the GI50 (SN12C) was > 100 µM (inactive). The GI50 (SNB-19) was > 100 µM (inactive), the GI50 (SNB-75) was > 100 µM (inactive) and the GI50 (SR) was > 100 µM (inactive). For the same compound, the GI50 (SW-620) was > 100 µM (inactive), the GI50 (TK-10) was > 100 µM (inactive) and the GI50 (U-251) was > 100 µM (inactive). The GI50 (UACC-257) was > 100 µM (inactive) and the GI50 (UO-31) was > 100 µM (inactive).

With Cc1c(C(=O)OCc2ccccc2)[n+]([O-])c2cc(F)c(F)cc2[n+]1[O-] the GI50 (786-0) was 4.58 µM (inactive), the GI50 (A498) was 1.42 µM (inactive) and the GI50 (A549) was 3.2 µM (inactive). The GI50 (ACHN) was 1.94 µM (inactive), the GI50 (BT-549) was 1.83 µM (inactive) and the GI50 (CAKI-1) was 2.15 µM (inactive). The GI50 (CCRF-CEM) was 0.944 µM (active), the GI50 (COLO 205) was 3.61 µM (inactive) and the GI50 (DU-145) was 2.41 µM (inactive). For the same compound, the GI50 (EKVX) was 3.26 µM (inactive), the GI50 (HCC 2998) was 1.9 µM (inactive) and the GI50 (HCT-116) was 1.63 µM (inactive). The GI50 (HCT-15) was 0.583 µM, the GI50 (HL-60) was 1.06 µM (active) and the GI50 (HOP-62) was 4.67 µM (inactive). For the same compound, the GI50 (HOP-92) was 2.21 µM (inactive), the GI50 (HT-29) was 2.01 µM (inactive) and the GI50 (Hs-578T) was 0.306 µM (active). For the same compound, the GI50 (IGROV-1) was 1.73 µM (inactive), the GI50 (K562) was 0.264 µM (active) and the GI50 (KM12) was 5.68 µM (inactive). For the same compound, the GI50 (LOX IMVI) was 0.421 µM (active), the GI50 (M14) was 1.77 µM (inactive) and the GI50 (MCF7) was 2.31 µM (inactive). The GI50 (MDA-MB-231) was 1.8 µM (inactive), the GI50 (MDA-MB-435) was 2.15 µM (inactive) and the GI50 (MOLT-4) was 1.96 µM (inactive). The GI50 (Malme-3M) was 1.99 µM (inactive), the GI50 (NCI-H226) was 2.7 µM (inactive) and the GI50 (NCI-H23) was 2.37 µM (inactive). The GI50 (NCI-H460) was 2.46 µM (inactive), the GI50 (NCI-H522) was 2 µM (inactive) and the GI50 (NCI/ADR-RES) was 3.22 µM (inactive). For the same compound, the GI50 (OVCAR-3) was 1.01 µM (active), the GI50 (OVCAR-4) was 1.77 µM (inactive) and the GI50 (OVCAR-5) was 3.72 µM (inactive). The GI50 (OVCAR-8) was 2.07 µM (inactive), the GI50 (PC-3) was 2.52 µM (inactive) and the GI50 (RPMI-8226) was 4.41 µM (inactive). For the same compound, the GI50 (RXF 393) was 2.38 µM (inactive), the GI50 (SF-268) was 1.25 µM (inactive) and the GI50 (SF-295) was 2.16 µM (inactive). For the same compound, the GI50 (SF-539) was 2.52 µM (inactive), the GI50 (SK-MEL-28) was 2.06 µM (inactive) and the GI50 (SK-MEL-2) was 1.67 µM (inactive). The GI50 (SK-MEL-5) was 0.698 µM (active), the GI50 (SN12C) was 1.94 µM (inactive) and the GI50 (SNB-19) was 2.08 µM (inactive). For the same compound, the GI50 (SNB-75) was 2.7 µM (inactive), the GI50 (SR) was 0.877 µM (active) and the GI50 (SW-620) was 0.64 µM (active). For the same compound, the GI50 (T47D) was 1.51 µM (inactive), the GI50 (TK-10) was 16.3 µM (inactive) and the GI50 (U-251) was 2.3 µM (inactive). The GI50 (UACC-257) was 2.19 µM (inactive), the GI50 (UACC-62) was 2.11 µM (inactive) and the GI50 (UO-31) was 1.79 µM (inactive).
